Assay results: patent publication US20080213223A1, “Systemic viral/ligand gene delivery system and gene therapy” (SynerGene Therapeutics, Inc., priority 1998, published 2008)

Assays:
[1] = tested on: B16 mouse melanoma lung metastases; experiment: B16 mouse melanoma lung metastases model with cisplatin; assay type: in vivo, C57/BL/6 mice; conditions: agent alone
Description: FIGS. 5A-H. Chemosensitization of B16 mouse lung metastases to cisplatin (CDDP) by systemically delivered, tumor-targeted adenoviral-p53. The metastases were induced in normal, syngeneic C57/Bl/6 mice by the intravenous injection of 1×10^5 cells. Four days later treatment was begun. Tf-Adp53 and control Tf-AdLacZ were produced at the ratio of 1.5×10^5 Tf molecules/virion. 1×10^10 viral particles/mouse/injection (equivalent to 3×10^8 pfu) of either Adp53, Tf-Adp53 or Tf-AdLacZ were i.v. administered 3 times/week to a total of 12-13 doses. CDDP was intraperitoneally injected at 3-5 mg/kg every 2-4 days for a total of 8-13 doses. The lungs were excised from the animals after one round of treatment. Lungs from animal treated with: No treatment (FIGS. 5A and 5E); CDDP alone (FIG. 5B); untargetted Ad-p53 plus CDDP (FIG. 5C); Tf-LacZ plus CDDP (FIG. 5F); Tf-Adp53 alone (FIG. 5G); Tf-Adp53 plus CDDP (FIGS. 5D and 5H).
The ability of the ligand-targeted, viral p53 delivery system to sensitize tumor cells to chemotherapy in an immune competent animal model was examined. The model chosen for these studies was the B16 mouse melanoma lung metastases model. In multiple experiments, B16 cells were injected, via the tail vein into immune-competent C57/BL/6 mice. In this model, tumor colonies in the lung are easily visible within two-three weeks, due to the expression of melanin by the tumor cells. […]

[2] = tested on: MDA-MB-435 xenograft tumors; experiment: MDA-MB-435 xenograft tumor growth with docetaxel (Taxotere); assay type: in vivo, athymic nude (NCr nu-nu) mice; conditions: agent alone
Description: Additionally, since chemotherapy is often the treatment of choice for breast cancer, this experiment tested the ability of the delivery system of this invention to sensitize established human breast cancer xenograft tumors to the commonly used chemotherapeutic agent docetaxel (Taxotere). Xenografts were induced in 4-6 week old female athymic nude (NCr nu-nu) mice by the subcutaneous injection of 2.5×10^6 MDA-MB-435 cells in the mammary fat pad of each animal. Tumors were allowed to develop to a size of 40-50 mm^3. The targeted adenovirus, designated Tf Adp53, was prepared by mixing transferrin with adenovirus carrying DNA encoding wt p53 as described in Example 1. The animals were divided into five groups: (i) Untreated (−) Taxotere; (ii) Taxotere alone, (iii) Untargeted Adp53 (+) Taxotere; (iv) Targeted Adp53 (−) Taxotere; (v) Targeted Adp53 (+) Taxotere. The mice were i.v. injected, via the tail vein, every three to four days with 5×10^10 pt/mouse/injection of either targeted (an admixture of Tf ligand and virus was injected) or untargeted (no ligand) Adp53. A total of 12 injections were administered. The day after the initial viral injection, drug treatment was started. The animals were given Taxotere i.v. at a dose of 7.5 mg/kg every three or four days to a total of 11 injections. The tumor sizes were measured weekly in a blinded manner on a total of 6-8 tumors/group. […]

Row | Structure (SMILES) | effect on lung tumor colonies compared to untreated animals [1] | effect on tumor growth [2]
1 | [NH2][Pt]([NH2])([Cl])[Cl] [CDDP, cisplatin] | some effect | 
2 | CC(=O)O[C@@]12CO[C@@H]1C[C@H](O)[C@@]1(C)C(=O)[C@H](O)C3=C(C)[C@@H](OC(=O)[C@H](O)[C@@H](NC(=O)OC(C)(C)C)c4ccccc4)C[C@@](O)([C@@H](OC(=O)c4ccccc4)[C@H]21)C3(C)C [Taxotere, docetaxel] |  | some growth inhibition
